Results as given in article PMC12397098, “3-Monothiopomalidomide, a new immunomodulatory imide drug (IMiD), blunts inflammation and mitigates ischemic stroke in the rat” (GeroScience, 2025).

Tests used:
[1] = Ex vivo plasma stability, human; format: in vitro ADME; details: 100 μg/ml, 37 °C, 180 min
Protocol: Ex vivo evaluations of drug plasma and liver microsomal time-dependent breakdown are routinely undertaken to initially characterize the metabolic stability of new pharmacological compounds and were performed by WuXi AppTec (Shanghai, China; Study No. 424847–20,211,214-MMS). Rat and human plasma and liver microsomes were purchased from Xenotech (Sprague Dawley rat, Catalog no. R1000; BioIVT, Westbury, NY) or Corning (mixed human, Catalog no. 452117; Sigma). Rat and human plasma was incubated at 37 °C on a shaker and spiked with 3-MP (100 μg/ml, n = 3). Thereafter, samples were time-dependently (0 to 180 min) removed, immediately frozen (− 80 °C), and subjected to LC–MS/MS analysis at a later time.

[2] = in vitro; details: human, microsomes
[3] = test system: MCAo-induced brain infarction; experiment: MCAo ischemic stroke: brain infarct volume (TTC); format: in vivo, rat; details: 3-MP 10.58 and 21.17 mg/kg I.P. (doses combined), 48 h
[4] = target: T1, Serotonin 5-HT1D receptor (Homo sapiens, UniProt P28221); experiment: PDSP radioligand binding; details: read-out: 3-MP concentration required to induce 50% inhibition of PDSP radioligand binding
T1 construct: NIMH Psychoactive Drug Screening Program (PDSP)
Protocol: (§1) To evaluate potential binding at classical neurological drug targets, 3-MP and 3,6’-DP were submitted to the National Institute on Mental Health (NIMH) Psychoactive Drug Screening Program (PDSP: Univ. N Carolina, Chapel Hill, NC, USA < https://pdspdb.unc.edu/pdspweb/ >) as powdered samples in the provided vials. The materials were then prepared at the PDSP in 10% DMSO, subjected to multiple assay screens, and processed as per the PDSP Assay Protocol Book (Version 3, March 2018). Compounds that exceeded an initial 10 uM binding threshold were then delegated for secondary dose–response analysis. This screen comprised a 45-target comprehensive panel of common brain receptor and transporter drug targets.

[5] = target: T2, Adrenergic Alpha1A receptor (Homo sapiens, UniProt P35348); experiment: PDSP radioligand binding; details: read-out: 3-MP concentration required to induce 50% inhibition of PDSP radioligand binding
T2 construct: NIMH Psychoactive Drug Screening Program (PDSP)
Protocol: as §1

[6] = target: T3, Serotonin 5-HT6 receptor (Homo sapiens, UniProt P50406); experiment: PDSP radioligand binding; details: read-out: 3-MP concentration required to induce 50% inhibition of PDSP radioligand binding
T3 construct: NIMH Psychoactive Drug Screening Program (PDSP)
Protocol: as §1

[7] = target: T4, Serotonin 5-HT2A receptor (Homo sapiens, UniProt P28223); experiment: PDSP radioligand binding; details: read-out: 3-MP concentration required to induce 50% inhibition of PDSP radioligand binding
T4 construct: NIMH Psychoactive Drug Screening Program (PDSP)
Protocol: as §1

[8] = target: GABAA receptor; experiment: PDSP radioligand binding; details: read-out: 3-MP concentration required to induce 50% inhibition of PDSP radioligand binding
Protocol: as §1

[9] = target: δ-opioid receptor (Homo sapiens, UniProt P41143); experiment: PDSP radioligand binding; details: read-out: 3-MP concentration required to induce 50% inhibition of PDSP radioligand binding
Protocol: as §1

[10] = target: T5, Adrenergic Alpha2B receptor (Homo sapiens, UniProt P18089); experiment: PDSP radioligand binding; details: read-out: 3-MP concentration required to induce 50% inhibition of PDSP radioligand binding
T5 construct: NIMH Psychoactive Drug Screening Program (PDSP)
T5 sequence (P18089 whole entry): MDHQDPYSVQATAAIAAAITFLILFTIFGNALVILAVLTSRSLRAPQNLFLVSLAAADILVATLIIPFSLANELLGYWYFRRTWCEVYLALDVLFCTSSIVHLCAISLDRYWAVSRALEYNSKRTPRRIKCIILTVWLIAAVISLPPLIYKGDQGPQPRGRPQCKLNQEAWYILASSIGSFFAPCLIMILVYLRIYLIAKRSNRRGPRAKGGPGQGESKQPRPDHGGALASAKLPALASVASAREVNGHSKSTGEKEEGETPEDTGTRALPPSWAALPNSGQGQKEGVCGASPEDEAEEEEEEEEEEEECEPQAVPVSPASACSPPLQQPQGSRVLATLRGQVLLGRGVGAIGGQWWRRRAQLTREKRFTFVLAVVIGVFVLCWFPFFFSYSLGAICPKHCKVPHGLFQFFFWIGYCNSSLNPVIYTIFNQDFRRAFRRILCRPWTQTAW
Protocol: as §1

[11] = target: T6, Adrenergic Beta1 receptor (Homo sapiens, UniProt P08588); experiment: PDSP radioligand binding; details: read-out: 3-MP concentration required to induce 50% inhibition of PDSP radioligand binding
T6 construct: NIMH Psychoactive Drug Screening Program (PDSP)
T6 sequence (P08588 whole entry): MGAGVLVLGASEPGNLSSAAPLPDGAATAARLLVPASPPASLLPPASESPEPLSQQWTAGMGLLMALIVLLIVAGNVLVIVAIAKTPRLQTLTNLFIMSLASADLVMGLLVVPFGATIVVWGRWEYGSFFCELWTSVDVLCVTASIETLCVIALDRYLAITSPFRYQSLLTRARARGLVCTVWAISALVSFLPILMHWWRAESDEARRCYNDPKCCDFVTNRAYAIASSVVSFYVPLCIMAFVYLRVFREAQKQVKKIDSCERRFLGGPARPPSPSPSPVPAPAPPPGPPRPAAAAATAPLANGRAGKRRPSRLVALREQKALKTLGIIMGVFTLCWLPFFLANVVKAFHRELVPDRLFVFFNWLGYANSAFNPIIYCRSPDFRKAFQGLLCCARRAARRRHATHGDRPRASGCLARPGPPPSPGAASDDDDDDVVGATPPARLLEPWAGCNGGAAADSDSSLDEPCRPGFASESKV
Protocol: as §1

[12] = target: SERT transporter (Homo sapiens, UniProt P31645); experiment: PDSP radioligand binding; details: read-out: 3-MP concentration required to induce 50% inhibition of PDSP radioligand binding
Protocol: as §1

[13] = target: NET transporter (Homo sapiens, UniProt P23975); experiment: PDSP radioligand binding; details: read-out: 3-MP concentration required to induce 50% inhibition of PDSP radioligand binding
Sequence of NET transporter (P23975 whole entry): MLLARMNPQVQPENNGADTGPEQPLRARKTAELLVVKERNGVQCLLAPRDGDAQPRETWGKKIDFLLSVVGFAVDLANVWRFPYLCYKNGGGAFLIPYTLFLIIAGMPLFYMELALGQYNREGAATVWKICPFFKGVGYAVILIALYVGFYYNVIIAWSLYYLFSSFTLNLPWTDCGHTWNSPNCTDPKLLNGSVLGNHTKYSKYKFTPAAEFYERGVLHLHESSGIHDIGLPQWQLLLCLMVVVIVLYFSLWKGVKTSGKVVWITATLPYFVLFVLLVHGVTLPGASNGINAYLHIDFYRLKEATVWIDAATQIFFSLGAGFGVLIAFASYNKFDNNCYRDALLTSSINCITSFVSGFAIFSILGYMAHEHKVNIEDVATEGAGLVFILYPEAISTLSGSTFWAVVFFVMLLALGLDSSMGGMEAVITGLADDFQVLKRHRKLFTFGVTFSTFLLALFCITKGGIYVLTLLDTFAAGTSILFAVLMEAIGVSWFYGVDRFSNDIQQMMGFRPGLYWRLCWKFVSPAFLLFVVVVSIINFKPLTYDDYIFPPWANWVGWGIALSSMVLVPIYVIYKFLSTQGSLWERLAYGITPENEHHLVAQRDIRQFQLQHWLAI
Protocol: as §1

[14] = target: T7, Adrenergic Alpha1B receptor (Homo sapiens, UniProt P35368); experiment: PDSP radioligand binding; details: read-out: 3-MP concentration required to induce 50% inhibition of PDSP radioligand binding
T7 construct: NIMH Psychoactive Drug Screening Program (PDSP)
Protocol: as §1

[15] = target: T8, Adrenergic Beta2 receptor (Homo sapiens, UniProt P07550); experiment: PDSP radioligand binding; details: read-out: 3-MP concentration required to induce 50% inhibition of PDSP radioligand binding
T8 construct: NIMH Psychoactive Drug Screening Program (PDSP)
T8 sequence (P07550 whole entry): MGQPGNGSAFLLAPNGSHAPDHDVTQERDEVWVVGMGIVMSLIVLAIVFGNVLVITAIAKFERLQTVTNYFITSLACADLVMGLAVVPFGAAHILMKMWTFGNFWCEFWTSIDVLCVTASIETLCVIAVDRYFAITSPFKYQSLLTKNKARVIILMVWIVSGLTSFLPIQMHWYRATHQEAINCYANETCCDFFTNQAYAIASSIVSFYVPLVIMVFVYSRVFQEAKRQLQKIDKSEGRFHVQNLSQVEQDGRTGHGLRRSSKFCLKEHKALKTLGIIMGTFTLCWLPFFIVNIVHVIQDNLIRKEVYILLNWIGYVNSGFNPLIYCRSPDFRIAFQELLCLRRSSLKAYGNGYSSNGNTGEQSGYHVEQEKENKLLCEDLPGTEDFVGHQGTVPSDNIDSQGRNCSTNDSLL
Protocol: as §1

[16] = target: T9, Serotonin 5-HT1A receptor (Homo sapiens, UniProt P08908); experiment: PDSP radioligand binding; details: read-out: 3-MP concentration required to induce 50% inhibition of PDSP radioligand binding
T9 construct: NIMH Psychoactive Drug Screening Program (PDSP)
Protocol: as §1

[17] = target: Muscarinic M4 receptor (Homo sapiens, UniProt P08173); experiment: PDSP radioligand binding; details: read-out: 3-MP concentration required to induce 50% inhibition of PDSP radioligand binding
Sequence of Muscarinic M4 receptor (P08173 whole entry): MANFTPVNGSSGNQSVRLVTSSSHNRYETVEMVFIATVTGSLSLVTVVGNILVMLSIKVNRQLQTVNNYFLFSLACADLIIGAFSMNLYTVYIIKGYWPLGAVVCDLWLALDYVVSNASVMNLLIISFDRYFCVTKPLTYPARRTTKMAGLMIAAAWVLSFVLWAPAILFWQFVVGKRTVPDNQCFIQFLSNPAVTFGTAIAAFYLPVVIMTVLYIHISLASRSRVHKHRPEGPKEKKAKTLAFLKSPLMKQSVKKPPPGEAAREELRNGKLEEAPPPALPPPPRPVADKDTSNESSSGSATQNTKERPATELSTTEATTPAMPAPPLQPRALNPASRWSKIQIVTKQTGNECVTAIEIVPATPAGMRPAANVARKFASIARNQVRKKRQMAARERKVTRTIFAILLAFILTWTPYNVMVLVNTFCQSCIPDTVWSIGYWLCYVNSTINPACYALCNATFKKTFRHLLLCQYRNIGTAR
Protocol: as §1

[18] = target: T10, Serotonin 5-HT7A receptor (Homo sapiens, UniProt P34969); experiment: PDSP radioligand binding; details: read-out: 3-MP concentration required to induce 50% inhibition of PDSP radioligand binding
T10 construct: NIMH Psychoactive Drug Screening Program (PDSP)
T10 sequence (P34969 1-445 isoform P34969-2): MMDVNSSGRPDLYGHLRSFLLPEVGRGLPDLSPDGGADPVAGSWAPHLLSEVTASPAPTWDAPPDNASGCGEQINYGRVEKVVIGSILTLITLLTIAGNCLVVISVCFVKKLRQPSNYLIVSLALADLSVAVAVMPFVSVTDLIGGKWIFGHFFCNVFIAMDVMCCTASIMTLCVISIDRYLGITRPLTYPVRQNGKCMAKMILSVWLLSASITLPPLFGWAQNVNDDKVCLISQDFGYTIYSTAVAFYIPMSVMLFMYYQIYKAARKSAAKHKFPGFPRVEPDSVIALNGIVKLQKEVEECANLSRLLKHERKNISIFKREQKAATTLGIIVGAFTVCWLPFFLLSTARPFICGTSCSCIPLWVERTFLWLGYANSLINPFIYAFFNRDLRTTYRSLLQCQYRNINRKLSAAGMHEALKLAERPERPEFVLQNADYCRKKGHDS
Protocol: as §1

[19] = target: Histamine H1 receptor (Homo sapiens, UniProt P35367); experiment: PDSP radioligand binding; details: read-out: 3-MP concentration required to induce 50% inhibition of PDSP radioligand binding
Protocol: as §1

[20] = target: κ-opioid receptor (Homo sapiens, UniProt P41145); experiment: PDSP radioligand binding; details: read-out: 3-MP concentration required to induce 50% inhibition of PDSP radioligand binding
Sequence of κ-opioid receptor (P41145 whole entry): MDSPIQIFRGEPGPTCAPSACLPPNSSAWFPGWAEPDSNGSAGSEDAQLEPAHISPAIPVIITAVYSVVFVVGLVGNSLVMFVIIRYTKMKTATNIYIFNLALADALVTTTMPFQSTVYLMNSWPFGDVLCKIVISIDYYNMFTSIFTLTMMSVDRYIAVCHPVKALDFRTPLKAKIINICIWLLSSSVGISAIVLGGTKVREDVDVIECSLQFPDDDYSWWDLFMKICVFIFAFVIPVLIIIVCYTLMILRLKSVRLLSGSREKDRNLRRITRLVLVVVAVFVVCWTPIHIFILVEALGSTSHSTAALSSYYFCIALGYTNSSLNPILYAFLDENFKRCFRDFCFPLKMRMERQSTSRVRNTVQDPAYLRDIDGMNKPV
Protocol: as §1

[21] = target: Dopamine D3 receptor (Homo sapiens, UniProt P35462); experiment: PDSP radioligand binding; details: read-out: 3-MP concentration required to induce 50% inhibition of PDSP radioligand binding
Protocol: as §1

[22] = target: T11, Dopamine D1 receptor (Homo sapiens, UniProt P21728); experiment: PDSP radioligand binding; details: read-out: 3-MP concentration required to induce 50% inhibition of PDSP radioligand binding
T11 construct: NIMH Psychoactive Drug Screening Program (PDSP)
Protocol: as §1

[23] = target: T12, Adrenergic Alpha2A receptor (Homo sapiens, UniProt P08913); experiment: PDSP radioligand binding; details: read-out: 3-MP concentration required to induce 50% inhibition of PDSP radioligand binding
T12 construct: NIMH Psychoactive Drug Screening Program (PDSP)
T12 sequence (P08913 whole entry): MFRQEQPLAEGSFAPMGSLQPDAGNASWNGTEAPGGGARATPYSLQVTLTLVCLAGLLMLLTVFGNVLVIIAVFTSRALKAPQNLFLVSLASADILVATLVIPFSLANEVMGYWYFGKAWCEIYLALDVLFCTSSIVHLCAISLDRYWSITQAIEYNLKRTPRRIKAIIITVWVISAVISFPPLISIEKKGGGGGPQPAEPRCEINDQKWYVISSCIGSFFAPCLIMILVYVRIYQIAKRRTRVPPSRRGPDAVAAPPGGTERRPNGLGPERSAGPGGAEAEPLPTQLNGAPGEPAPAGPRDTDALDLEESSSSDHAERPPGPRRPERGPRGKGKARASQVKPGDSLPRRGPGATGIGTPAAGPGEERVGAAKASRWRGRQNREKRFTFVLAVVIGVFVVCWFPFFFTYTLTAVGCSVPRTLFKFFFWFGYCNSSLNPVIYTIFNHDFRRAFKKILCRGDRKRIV
Protocol: as §1

[24] = target: T13, Serotonin 5-HT3 receptor (Homo sapiens, UniProt P46098); experiment: PDSP radioligand binding; details: read-out: 3-MP concentration required to induce 50% inhibition of PDSP radioligand binding
T13 construct: NIMH Psychoactive Drug Screening Program (PDSP)
Protocol: as §1

[25] = target: Dopamine D4 receptor (Homo sapiens, UniProt P21917); experiment: PDSP radioligand binding; details: read-out: 3-MP concentration required to induce 50% inhibition of PDSP radioligand binding
Sequence of Dopamine D4 receptor (P21917 whole entry): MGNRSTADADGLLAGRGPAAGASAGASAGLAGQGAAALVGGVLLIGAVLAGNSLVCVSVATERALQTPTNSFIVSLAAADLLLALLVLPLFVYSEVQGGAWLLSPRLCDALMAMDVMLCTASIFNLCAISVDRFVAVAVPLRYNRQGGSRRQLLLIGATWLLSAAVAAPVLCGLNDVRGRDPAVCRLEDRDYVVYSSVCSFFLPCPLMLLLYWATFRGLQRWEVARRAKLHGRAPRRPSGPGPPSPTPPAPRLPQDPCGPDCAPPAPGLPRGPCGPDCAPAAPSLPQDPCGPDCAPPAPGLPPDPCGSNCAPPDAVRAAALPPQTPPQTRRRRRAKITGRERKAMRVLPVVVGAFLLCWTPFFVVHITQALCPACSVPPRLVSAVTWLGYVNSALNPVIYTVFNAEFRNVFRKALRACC
Protocol: as §1

[26] = target: Histamine H2 receptor (Homo sapiens, UniProt P25021); experiment: PDSP radioligand binding; details: read-out: 3-MP concentration required to induce 50% inhibition of PDSP radioligand binding
Protocol: as §1

[27] = target: T14, Benzodiazepine PBR receptor (Rattus norvegicus, UniProt P16257); experiment: PDSP radioligand binding; details: read-out: 3-MP concentration required to induce 50% inhibition of PDSP radioligand binding
T14 construct: NIMH Psychoactive Drug Screening Program (PDSP)
Protocol: as §1

[28] = target: T15, Serotonin 5-HT1E receptor (Homo sapiens, UniProt P28566); experiment: PDSP radioligand binding; details: read-out: 3-MP concentration required to induce 50% inhibition of PDSP radioligand binding
T15 construct: NIMH Psychoactive Drug Screening Program (PDSP)
T15 sequence (P28566 whole entry): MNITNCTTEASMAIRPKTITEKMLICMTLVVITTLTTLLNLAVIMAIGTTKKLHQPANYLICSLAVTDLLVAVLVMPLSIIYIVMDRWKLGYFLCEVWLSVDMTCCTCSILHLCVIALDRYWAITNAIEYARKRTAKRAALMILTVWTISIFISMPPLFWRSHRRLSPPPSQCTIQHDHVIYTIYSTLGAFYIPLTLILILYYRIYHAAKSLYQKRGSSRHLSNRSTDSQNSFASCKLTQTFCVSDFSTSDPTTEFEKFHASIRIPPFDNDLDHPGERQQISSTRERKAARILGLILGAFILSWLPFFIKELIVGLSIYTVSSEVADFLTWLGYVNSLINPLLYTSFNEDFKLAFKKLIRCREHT
Protocol: as §1

[29] = target: Muscarinic M1 receptor (Homo sapiens, UniProt P11229); experiment: PDSP radioligand binding; details: read-out: 3-MP concentration required to induce 50% inhibition of PDSP radioligand binding
Sequence of Muscarinic M1 receptor (P11229 whole entry): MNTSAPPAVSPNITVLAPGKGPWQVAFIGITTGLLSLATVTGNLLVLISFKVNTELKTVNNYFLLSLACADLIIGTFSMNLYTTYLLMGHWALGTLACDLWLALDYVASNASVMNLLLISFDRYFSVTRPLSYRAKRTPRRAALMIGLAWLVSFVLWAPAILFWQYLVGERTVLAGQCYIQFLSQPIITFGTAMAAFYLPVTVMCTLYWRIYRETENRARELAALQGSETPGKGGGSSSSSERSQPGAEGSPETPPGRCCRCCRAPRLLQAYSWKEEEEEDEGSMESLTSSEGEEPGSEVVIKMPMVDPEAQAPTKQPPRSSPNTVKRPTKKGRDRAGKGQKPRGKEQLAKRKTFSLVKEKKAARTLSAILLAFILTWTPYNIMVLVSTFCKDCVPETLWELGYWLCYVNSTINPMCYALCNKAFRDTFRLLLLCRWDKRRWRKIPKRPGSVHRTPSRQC
Protocol: as §1

## Nc1cccc2c1C(=S)N(C1CCC(=O)NC1=O)C2=O (centres unmarked) [3-MP, 3-Monothiopomalidomide]
[1]
  stability in human plasma: relatively stable
[2]
  CLint scaled at 1 μM: < 8.6 mL/min/kg
  half-life at 1 μM: > 2.42 h
  microsomal CLint at 1 μM: < 9.6 µL/min/mg
[3]; rat MCAo 60 min + reperfusion, TTC
  infarct volume: 4.32 ± 1.33%
[3]; rat MCAo
  reduction of infarct volume versus MCAo + vehicle: 56%
[4]
  IC50: > 10 µM
[5]
  IC50: > 10 µM
[6]
  IC50: > 10 µM
[7]
  IC50: > 10 µM
[8]
  IC50: > 10 µM
[9]
  IC50: > 10 µM
[10]
  IC50: > 10 µM
[11]
  IC50: > 10 µM
[12]
  IC50: > 10 µM
[13]
  IC50: > 10 µM
[14]
  IC50: > 10 µM
[15]
  IC50: > 10 µM
[16]
  IC50: > 10 µM
[17]
  IC50: > 10 µM
[18]
  IC50: > 10 µM
[19]
  IC50: > 10 µM
[20]
  IC50: > 10 µM
[21]
  IC50: > 10 µM
[22]
  IC50: > 10 µM
[23]
  IC50: > 10 µM
[24]
  IC50: > 10 µM
[25]
  IC50: > 10 µM
[26]
  IC50: > 10 µM
[27]
  IC50: > 10 µM
[28]
  IC50: > 10 µM
[29]
  IC50: > 10 µM
